# Reference: patent US20240158446A1, “CYCLIC COMPOUND HAVING SELECTIVE INHIBITORY ACTION ON KRAS OVER HRAS AND NRAS” (CHUGAI SEIYAKU KABUSHIKI KAISHA, priority 2021, published 2024)
# Like-named read-outs stand apart in the source and are kept apart here. Where a SMILES comes first, the peptide text is derived from it. Bridges are numbered along the chain shown (N, C = ends). [ ]: non-standard residue; d: D form. The star is where a group is joined. hPhe(3-Cl-4-CF3) = N[C@@H](CCc1ccc(C(F)(F)F)c(Cl)c1)C(=O)O; NPrPhe(4-CF3) = CCCN[C@@H](Cc1ccc(C(F)(F)F)cc1)C(=O)O; NMeGly(cPent) = CN[C@H](C(=O)O)C1CCCC1; NMeD = CN[C@@H](CC(=O)O)C(=O)O; NMeL = CN[C@@H](CC(C)C)C(=O)O; Morpholide = C1CN(*)CCO1; Ac5c = NC1(C(=O)O)CCCC1; Sar = CNCC(=O)O
# Key:
# [1] = target: GDP-bound NRAS wild-type protein (Homo sapiens, UniProt P01111); test: Binding to NRAS by surface plasmon resonance (SPR), Single Cycle Kinetics; settings: for NRAS/KRAS (KD ratio): ratio of KD for GDP-bound NRAS wild-type protein to KD for KRAS; for NRAS/KRAS (KD ratio) / NRAS/KRAS (ratio of KD value for NRAS to KD value for KRAS): SPR; for NRAS/KRAS (ratio of KD value for NRAS to KD value for KRAS): GDP-bound NRAS wild-type protein vs GDP-bound KRAS wild-type protein
# Chain of GDP-bound NRAS wild-type protein (P01111 whole entry): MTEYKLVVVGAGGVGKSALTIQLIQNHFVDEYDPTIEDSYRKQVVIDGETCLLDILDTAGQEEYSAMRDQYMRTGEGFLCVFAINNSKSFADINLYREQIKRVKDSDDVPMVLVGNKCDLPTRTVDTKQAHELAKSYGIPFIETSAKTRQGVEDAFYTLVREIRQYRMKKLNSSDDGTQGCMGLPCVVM
# [2] = test system: human lung cancer strain NCI-H441; test: cells; settings: NCI-H441, 96 h, read-out: NCI-H441 IC50 (nM), NCI-H441 cell proliferation, 4 days, CellTiter-Glo;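 also: cell proliferation inhibition after four days measured by CellTiter-Glo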
# [3] = target: GDP-bound HRAS wild-type protein (Homo sapiens, UniProt P01112); test: Binding to HRAS by surface plasmon resonance (SPR), Single Cycle Kinetics; settings: for HRAS/KRAS (KD ratio): ratio of KD for GDP-bound HRAS wild-type protein to KD for KRAS; for HRAS/KRAS (KD ratio) / HRAS/KRAS (ratio of KD value for HRAS to KD value for KRAS): SPR; for HRAS/KRAS (ratio of KD value for HRAS to KD value for KRAS): GDP-bound HRAS wild-type protein vs GDP-bound KRAS wild-type protein
# Chain of GDP-bound HRAS wild-type protein (P01112 whole entry): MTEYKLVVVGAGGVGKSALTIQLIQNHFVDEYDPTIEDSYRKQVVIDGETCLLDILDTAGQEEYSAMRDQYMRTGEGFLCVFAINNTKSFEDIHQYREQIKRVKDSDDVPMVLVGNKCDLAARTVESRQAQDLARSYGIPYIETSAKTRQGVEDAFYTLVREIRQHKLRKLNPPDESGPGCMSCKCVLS
# [4] = target: GDP-bound KRAS wild-type protein (Homo sapiens, UniProt P01116); test: Binding to KRAS by surface plasmon resonance (SPR), Single Cycle Kinetics; settings: GDP-bound KRAS wild-type protein, read-out: KRAS KD
# Chain of GDP-bound KRAS wild-type protein (P01116 whole entry): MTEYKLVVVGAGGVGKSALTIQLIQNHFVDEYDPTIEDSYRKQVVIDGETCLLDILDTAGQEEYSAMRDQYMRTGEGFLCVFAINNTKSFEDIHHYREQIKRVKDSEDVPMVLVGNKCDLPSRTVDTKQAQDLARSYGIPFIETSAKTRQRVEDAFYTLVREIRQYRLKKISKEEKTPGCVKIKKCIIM
# [5] = test system: human lung cancer strain NCI-H441;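 also: cell proliferation inhibition after four days measured by CellTiter-Glo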
# [6] = SPR, Single Cycle Kinetics, 1:1 binding model
smiles,measurement,setting,value
CC[C@H](C)[C@@H]1NC(=O)[C@H](CC2CC2)N(C)C(=O)C[C@@H](C(=O)N(C)CC)N(C)C(=O)[C@H](C2CCCC2)N(C)C(=O)C2(CC(C)(C)C2)NC(=O)[C@@H]2C[C@H](C)CN2C(=O)[C@H](CCc2ccc(C(F)(F)F)c(OC)c2)NC(=O)CN(C)C(=O)[C@H](Cc2ccc(C)cc2)N2CC/C=C\C[C@@H](C2=O)N(C)C(=O)CN(C)C1=O [PP1899],NRAS/KRAS (KD ratio),[1],A (a compound having 10 or more and less than 20 is denoted as A)
same,IC50,[2],15.1 nM
same,HRAS/KRAS (KD ratio),[3],B (a compound having 3 or more and less than 10 is denoted as B)
CC[C@H](C)[C@@H]1NC(=O)[C@H](CC)N(C)C(=O)C[C@@H](C(=O)N(C)C)N(C)C(=O)[C@H](C2CCCC2)N(C)C(=O)C2(CCC2)N(C)C(=O)[C@@H]2CCCN2C(=O)[C@H](CCc2cc(F)c(C(F)(F)F)c(F)c2)NC(=O)CN(C)C(=O)[C@H](Cc2ccc(C)cc2)N2CC/C=C\C[C@@H](C2=O)N(C)C(=O)CN(C)C1=O [PP1782],NRAS/KRAS (KD ratio),[1],A (a compound having 10 or more and less than 20 is denoted as A)
same,IC50,[2],6.7 nM
same,HRAS/KRAS (KD ratio),[3],B (a compound having 3 or more and less than 10 is denoted as B)
CC[C@H](C)[C@@H]1NC(=O)[C@H](CC2CC2)N(C)C(=O)C[C@@H](C(=O)N(C)C)N(C)C(=O)[C@H](C2CCCC2)N(C)C(=O)C2(CCC2)N(C)C(=O)[C@@H]2C[C@@H](C)CN2C(=O)[C@H](CCc2cc(F)c(C(F)(F)F)c(F)c2)NC(=O)CN(C)C(=O)[C@H](Cc2ccc(C)cc2)N2CC/C=C\C[C@@H](C2=O)N(C)C(=O)[C@@H]2CCCN2C1=O [PP1801],NRAS/KRAS (KD ratio),[1],A (a compound having 10 or more and less than 20 is denoted as A)
same,IC50,[2],13 nM
same,HRAS/KRAS (KD ratio),[3],B (a compound having 3 or more and less than 10 is denoted as B)
CC[C@H](C)[C@@H]1NC(=O)[C@H](CC)N(C)C(=O)C[C@@H](C(=O)N(C)CC)N(C)C(=O)[C@H](C2CCCC2)N(C)C(=O)C2(CC(C)(C)C2)NC(=O)[C@@H]2C[C@@H](C)CN2C(=O)[C@H](CCc2cc(F)c(C(F)(F)F)c(F)c2)NC(=O)CN(C)C(=O)[C@H](Cc2ccc(C)cc2)N2CC/C=C\C[C@@H](C2=O)N(C)C(=O)CN(C)C1=O [PP1884],IC50,[2],17.3 nM
CCC[C@H]1C(=O)N[C@@H]([C@@H](C)CC)C(=O)N(C)CC(=O)N(C)[C@H]2C/C=C\CCN(C2=O)[C@@H](Cc2ccc(C)cc2)C(=O)N(C)CC(=O)N[C@@H](CCc2ccc(C(F)(F)F)c(Cl)c2)C(=O)N2C[C@H](C)C[C@H]2C(=O)NC2(CC(C)(C)C2)C(=O)N(C)[C@@H](C2CCCC2)C(=O)N(C)[C@H](C(=O)N(C)CC)CC(=O)N1C [PP1894],NRAS/KRAS (KD ratio),[1],A (a compound having 10 or more and less than 20 is denoted as A)
same,IC50,[2],15.9 nM
same,HRAS/KRAS (KD ratio),[3],A (a compound having 10 or more and less than 20 is denoted as A)
CCC[C@H]1C(=O)N[C@@H]([C@@H](C)CC)C(=O)N(C)CC(=O)N(C)[C@H]2C/C=C\CCN(C2=O)[C@@H](Cc2ccc(C)cc2)C(=O)N(C)CC(=O)N[C@@H](CCc2ccc(C(F)(F)F)c(Cl)c2)C(=O)N2C[C@H](C)C[C@H]2C(=O)NC2(CCC2)C(=O)N(C)[C@@H](C2CCCC2)C(=O)N(C)[C@H](C(=O)N(C)CC)CC(=O)N1C [PP1850],IC50,[2],49.1 nM
CCO[C@@H]1C[C@H]2C(=O)NC3(CCC3)C(=O)N(C)[C@@H](C3CCCC3)C(=O)N(C)[C@H](C(=O)N(C)CC)CC(=O)N(C)[C@@H](C(C)C)C(=O)N[C@@H]([C@@H](C)CC)C(=O)N(C)CC(=O)N(C)[C@H]3C/C=C\CCN(C3=O)[C@@H](Cc3ccc(C(F)(F)F)cc3)C(=O)N(C)CC(=O)N[C@@H](CCc3ccc(C(F)(F)F)c(OC)c3)C(=O)N2C1 [PP2019],IC50,[2],4.5 nM
CC[C@H](C)[C@@H]1NC(=O)[C@H](CC(F)F)N(C)C(=O)C[C@@H](C(=O)N(C)C)N(C)C(=O)[C@H](C2CCCC2)N(C)C(=O)C2(CC(C)(C)C2)NC(=O)[C@@H]2C[C@@H](C)CN2C(=O)[C@H](CCc2ccc(C(F)(F)F)c(OC)c2)NC(=O)CN(C)C(=O)[C@H](Cc2ccc(C)cc2)N2CC/C=C\C[C@@H](C2=O)N(C)C(=O)CN(C)C1=O [PP1877],IC50,[2],18.4 nM
CC[C@H](C)[C@@H]1NC(=O)[C@H](CC)N(C)C(=O)C[C@@H](C(=O)N(C)CC)N(C)C(=O)[C@H](C2CCCC2)N(C)C(=O)C2(CCC2)NC(=O)[C@@H]2C[C@H](C)CN2C(=O)[C@H](CCc2ccc(C(F)(F)F)c(OC)c2)NC(=O)CN(C)C(=O)[C@H](Cc2ccc(C)cc2)N2CC/C=C\C[C@@H](C2=O)N(C)C(=O)CN(C)C1=O [PP1853],IC50,[2],30.4 nM
CCCN(C)C(=O)[C@@H]1CC(=O)N(C)[C@@H](COCC)C(=O)N[C@@H]([C@@H](C)CC)C(=O)N(C)CC(=O)N(C)[C@H]2C/C=C\CCN(C2=O)[C@@H](Cc2ccc(C(F)(F)F)cc2)C(=O)N(C)CC(=O)N[C@@H](CCc2cc(F)c(C(F)(F)F)c(F)c2)C(=O)N2C[C@@H](C)C[C@H]2C(=O)NC2(CCC2)C(=O)N(C)[C@@H](C2CCCC2)C(=O)N1C [PP2002],IC50,[2],15.7 nM
CCCN(C)C(=O)[C@@H]1CC(=O)N(C)[C@@H](CCOC)C(=O)N[C@@H]([C@@H](C)CC)C(=O)N(C)CC(=O)N(C)[C@H]2C/C=C\CCN(C2=O)[C@@H](Cc2ccc(C(F)(F)F)cc2)C(=O)N(C)CC(=O)N[C@@H](CCc2cc(F)c(C(F)(F)F)c(F)c2)C(=O)N2C[C@H](OCC)C[C@H]2C(=O)NC2(CC(C)(C)C2)C(=O)N(C)[C@@H](C2CCCC2)C(=O)N1C [PP2033],IC50,[2],11.8 nM
CC[C@H](C)[C@@H]1NC(=O)[C@H](CC2CC2)N(C)C(=O)C[C@@H](C(=O)N(C)CC)N(C)C(=O)[C@H](C2CCCC2)N(C)C(=O)C2(CCC2)NC(=O)[C@@H]2C[C@H](C)CN2C(=O)[C@H](CCc2ccc(C(F)(F)F)c(OC)c2)NC(=O)CN(C)C(=O)[C@H](Cc2ccc(C)cc2)N2CC/C=C\C[C@@H](C2=O)N(C)C(=O)CN(C)C1=O [PP1897],IC50,[2],22.6 nM
CCCN1C(=O)CN(C)C(=O)CN(C)C(=O)[C@H]([C@@H](C)CC)NC(=O)[C@H](CC(C)C)N(C)C(=O)C[C@@H](C(=O)N2CCOCC2)N(C)C(=O)[C@H](C2CCCC2)N(C)C(=O)C2(CCCC2)NC(=O)[C@H](C)NC(=O)[C@H](CCc2ccc(C(F)(F)F)c(Cl)c2)NC(=O)CN(C)C(=O)[C@@H]1Cc1ccc(C(F)(F)F)cc1 [PP1914] ([NMeL]I[Sar][Sar][NPrPhe(4-CF3)][Sar][hPhe(3-Cl-4-CF3)]A[Ac5c][NMeGly(cPent)][NMeD]-Morpholide; lactam N-11),IC50,[2],39.7 nM
CCO[C@@H]1C[C@H]2C(=O)NC3(CCC3)C(=O)N(C)[C@@H](C3CCCC3)C(=O)N(C)[C@H](C(=O)N3CCOCC3)CC(=O)N(C)[C@@H](CC(C)C)C(=O)N[C@@H]([C@@H](C)CC)C(=O)N3CC[C@H]3C(=O)N(C)[C@H]3CC[C@@H](C)CN(C3=O)[C@@H](Cc3ccc(C(F)(F)F)cc3)C(=O)N(C)CC(=O)N[C@@H](CCc3ccc(C(F)(F)F)c(Cl)c3)C(=O)N2C1 [PP1379],Kd,[4]; [6],0.29 nM
same,IC50,[5],10.3 nM
same,NRAS/KRAS (ratio of KD value for NRAS to KD value for KRAS),[1]; KD ratio class,A (a compound having 10 or more and less than 20 is denoted as A)
same,HRAS/KRAS (ratio of KD value for HRAS to KD value for KRAS),[3]; KD ratio class,B (a compound having 3 or more and less than 10 is denoted as B)
CCO[C@@H]1C[C@H]2C(=O)NC3(CCC3)C(=O)N(C)[C@@H](C3CCCC3)C(=O)N(C)[C@H](C(=O)N(C)C)CC(=O)N(C)[C@@H](CC3CC3)C(=O)N[C@@H]([C@@H](C)CC)C(=O)N(C)CC(=O)N(C)[C@H]3C/C=C\CCN(C3=O)[C@@H](Cc3ccc(F)cc3C)C(=O)N(C)CC(=O)N[C@@H](CCc3cc(F)c(Cl)c(F)c3)C(=O)N2C1 [PP1477],Kd,[4]; [6],1.4 nM
same,IC50,[5],309 nM
same,NRAS/KRAS (ratio of KD value for NRAS to KD value for KRAS),[1]; KD ratio class,A (a compound having 10 or more and less than 20 is denoted as A)
same,HRAS/KRAS (ratio of KD value for HRAS to KD value for KRAS),[3]; KD ratio class,B (a compound having 3 or more and less than 10 is denoted as B)
CC[C@H](C)[C@@H]1NC(=O)[C@H](COC)N(C)C(=O)C[C@@H](C(=O)N(C)CC)N(C)C(=O)[C@H](C2CCCC2)N(C)C(=O)C2(CC(C)(C)C2)NC(=O)[C@@H]2C[C@H](C)CN2C(=O)[C@H](CCc2ccc(C(F)(F)F)c(Cl)c2)NC(=O)CN(C)C(=O)[C@H](Cc2ccc(C)cc2)N2CC/C=C\C[C@@H](C2=O)N(C)C(=O)CN(C)C1=O [PP2506],Kd,"[4]; SPR, Single Cycle Kinetics",0.13 nM
same,IC50,[5],10.6 nM
same,NRAS/KRAS (ratio of KD value for NRAS to KD value for KRAS),[1],A (a compound having 10 or more and less than 20 is denoted as A)
same,HRAS/KRAS (ratio of KD value for HRAS to KD value for KRAS),[3],A (a compound having 10 or more and less than 20 is denoted as A)
CCC[C@H]1C(=O)N[C@@H]([C@@H](C)CC)C(=O)N(C2CC2)CC(=O)N(C)[C@H]2C/C=C\CCN(C2=O)[C@@H](CC2CCC(F)(F)CC2)C(=O)N(C)CC(=O)N[C@@H](CCc2ccc(Cl)c(Cl)c2)C(=O)N2C[C@H](OCC)C[C@H]2C(=O)NC2(CC(C)(C)C2)C(=O)N(C)[C@@H](C2CCCC2)C(=O)N(C)[C@H](C(=O)N(C)C)CC(=O)N1C [PP2567],Kd,"[4]; SPR Single Cycle Kinetics, 1:1 binding model",1.9 nM
same,IC50,[5],102 nM
same,NRAS/KRAS (ratio of KD value with respect to GDP-bound NRAS wild-type protein to KD value with respect to KRAS),"[1]; SPR KD ratio NRAS/KRAS, class symbols",A (a compound having 10 or more and less than 20 is denoted as A)
same,HRAS/KRAS (ratio of KD value with respect to GDP-bound HRAS wild-type protein to KD value with respect to KRAS),"[3]; SPR KD ratio HRAS/KRAS, class symbols",A (a compound having 10 or more and less than 20 is denoted as A)
